Measured values taken from patent US12233130B2, “Covalently-modified steroid acid-peptides having enhanced stability and/or biological activity” (DEFENCE THERAPEUTICS INC., priority 2022, dated 2025).
Positions of bridges follow the written chain, without caps; N, C: chain ends. Residues, ends and D or L forms follow the SMILES beside them. Chains are numbered I, II in the order given. *: point of attachment. Chenodeoxycholyl = C[C@H](CCC(=O)*)[C@H]1CC[C@H]2[C@@H]3[C@H](O)C[C@@H]4C[C@H](O)CC[C@]4(C)[C@H]3CC[C@]12C

Tested on: JIMT-1 breast cancer cells
Test: Cell cytotoxicity assay (PrestoBlue)
Assay type: cell-based
Experimental: 50 mg of CDCA-C-SV40 monomers (or other steroid acid-peptide monomers) were resuspended in 200-500 μL of DMSO. 10 eq of N,N-Diisopropylethylamine (DIPEA) was added to the mixture and incubated in a thermomixer at 37° C. with agitation (1000 rpm) overnight, enabling dimerization of the monomers via their N-terminal cysteine thiol groups to produce (CDCA-C-SV40)2 or other dimers. The samples were then analyzed by UPLC-MS to evaluate dimer formation efficiency. Cell toxicity was evaluated via a Cell Toxicity assay (PrestoBlue™).
In a T75 flask of confluent JIMT-1 cells (at least 75%), the culture medium was removed, and 2 mL of trypsin was then added and incubated at 37° C. for about 5 minutes or until the cells detached. The trypsin was inactivated by adding 10 mL of culture medium, the cells were centrifuged at 950 rpm for 5 minutes at 4° C., viable cells were visualized with trypan blue and counted using a hematocytometer. Cells were then plated in a 96-well plate at 5000 cells/well and incubated at 37° C. for 24 hours. Trastuzumab-(CDCA-C-SV40)2 or T-DM1-(CDCA-C-SV40)2 was then added to the cells and incubated for 72 hours at 37° C. […] Fluorescence (excitation: 535-560 nm, emission: 590-615 nm) was measured. The cells were further incubated for another 30 minutes, and a second fluorescence reading was taken.

CC(C)[C@H](NC(=O)[C@H](CCCCN)NC(=O)CNC(=O)[C@H](Cc1ccc(O)cc1)NC(=O)CNC(=O)[C@H](CO)NC(=O)[C@H](CSSC[C@H](NC(=O)CC[C@@H](C)[C@H]1CC[C@H]2[C@@H]3[C@H](O)C[C@@H]4C[C@H](O)CC[C@]4(C)[C@H]3CC[C@]12C)C(=O)N[C@@H](CO)C(=O)NCC(=O)N[C@@H](Cc1ccc(O)cc1)C(=O)NCC(=O)N[C@@H](CCCCN)C(=O)N[C@H](C(=O)N[C@@H](CO)C(=O)N[C@@H](CCCNC(=N)N)C(=O)N[C@@H](CCCNC(=N)N)C(=O)NCC(=O)NCC(=O)N[C@@H](Cc1c[nH]cn1)C(=O)N[C@@H](CCC(N)=O)C(=O)N[C@@H](CC(N)=O)C(=O)N[C@@H](CO)C(=O)N[C@@H](Cc1ccc(O)cc1)C(=O)N[C@@H](CCCCN)C(=O)N1CCC[C@H]1C(=O)N[C@@H](Cc1ccc(O)cc1)C(=O)O)C(C)C)NC(=O)CC[C@@H](C)[C@H]1CC[C@H]2[C@@H]3[C@H](O)C[C@@H]4C[C@H](O)CC[C@]4(C)[C@H]3CC[C@]12C)C(=O)N[C@@H](CO)C(=O)N[C@@H](CCCNC(=N)N)C(=O)N[C@@H](CCCNC(=N)N)C(=O)NCC(=O)NCC(=O)N[C@@H](Cc1c[nH]cn1)C(=O)N[C@@H](CCC(N)=O)C(=O)N[C@@H](CC(N)=O)C(=O)N[C@@H](CO)C(=O)N[C@@H](Cc1ccc(O)cc1)C(=O)N[C@@H](CCCCN)C(=O)N1CCC[C@H]1C(=O)N[C@@H](Cc1ccc(O)cc1)C(=O)O [(CDCA-C-hnRNP D NLS)2] (I: Chenodeoxycholyl-CSGYGKVSRRGGHQNSYKPY-OH / II: Chenodeoxycholyl-CSGYGKVSRRGGHQNSYKPY-OH; disulfide I:1-II:1)
cytotoxicity of dimerized version vs monomer: enhancement of cytotoxicity
